Ring closure, yield of all isomers, ring closure, isolated yield and IC50 data for 16 compounds are collected here from US20100113504A1, “AMIDE COMPOUNDS AND THEIR USE AS ANTITUMOR AGENTS” (SIGMA-TAU INDUSTRIE FARMACEUTICHE RIUNITE S.P.A., priority 2007, published 2010).

The conditions of series [1]: rcm bond.
For series [2] the following is noted: rcm bond, Grubbs II, CH2Cl2, 1.0 mM.
Series [3] relates to NCI-H460 non-small cell carcinoma cells. The series is described as follows: Cytotoxicity (sulphorodamine B) on NCI-H460 tumor cells. Format: cell-based. Conditions: Homo sapiens, 24 h treatment, then 48 h in drug-free medium, read-out: IC50 ± SD, NCI-H460. As for the experimental part: (§1) Tumor cells were seeded in 96-well tissue culture plates at approximately 10% confluence and were allowed to attach and recover for at least 24 h. […] The plates were incubated for 24 h at 37° C. At the end of the treatment, for NB4 tumor cells in suspension, the procedure was performed as follows: medium culture was removed by centrifugation of the plates at 1600×g for 10 min and the surnatant was removed. 250 μl PBS were added, then the plates were centrifuged at 1600×g for 10 min, the surnatant was removed. […] The plates were centrifuged again at 1600×g for 10 min, the medium culture was removed and 200 μl PBS and 50 μl of cold 80% TCA were added. The plates were incubated on ice for at least 1 h. TCA was removed, the plates were washed 3 times for immersion in distilled-water and dried before on paper, then in a thermostater at 40° C. Subsequently 200 μl of 0.4% sulphorodamine B in 1% acetic acid were added. The plates were incubated at room temperature for other 30 min. Sulphorodamine B was removed, the plates were washed for immersion in 1% acetic acid for 3 times, then they were washed and dried on paper. 200 μl Tris 10 mM were added, the plates were kept under stirring for 20 min. The survival cell was determined as optical density by a Multiskan spectrofluorimeter at 540 nm. […] Also the last day of the assay, the surnatant was removed without centrifugation.
(§2) The amount of cells killed was calculated as the percentage decrease in sulphorodamine B binding compared with control cultures.

Series [4] has as its system NB4, NCI-H460 and HCT-116 tumor cells. The series is described as follows: Cytotoxicity summarised over the three tumor cell lines. It counts as cell-based. Particulars: Homo sapiens; mean over NB4, NCI-H460, HCT-116; 24 h of treatment. The protocol:
as §1, §2

Series [5] has as its system HCT-116 human colon carcinoma cells. The series is described as follows: Cytotoxicity (sulphorodamine B) on HCT-116 tumor cells. Format: cell-based. Particulars: Homo sapiens, HCT-116 cells, 24 h treatment, then 48 h in drug-free medium, read-out: IC50 ± SD, HCT-116. As for the experimental part: as §1, §2
For series [6], the system named is NB4 human promyelocitic leukaemia. The series is described as follows: Cytotoxicity (sulphorodamine B) on NB4 tumor cells. Format: cell-based. Particulars: Homo sapiens, NB-4, 24 h treatment, then 48 h in drug-free medium, read-out: IC50 ± SD, NB4. As for the experimental part: To test the effects of the compounds on cell growth, NB4 human promyelocitic leukaemia, NCI-H460 non-small cell carcinoma cells and HCT-116 human colon carcinoma cells were used. NB4 and NCI-H460 tumor cells were grown RPMI 1640 containing 10% fetal bovine serum (GIBCO), whereas HCT-116 tumor cells were grown in McCoy's 5A containing 10% fetal bovine serum (GIBCO).
Tumor cells were seeded in 96-well tissue culture plates at approximately 10% confluence and were allowed to attach and recover for at least 24 h. […] The plates were incubated for 24 h at 37° C. At the end of the treatment, for NB4 tumor cells in suspension, the procedure was performed as follows: medium culture was removed by centrifugation of the plates at 1600×g for 10 min and the surnatant was removed. 250 μl PBS were added, then the plates were centrifuged at 1600×g for 10 min, the surnatant was removed. 200 μl/well of medium culture RPMI 1640 containing 10% FCS were added and the plates were incubated at 37° C. for other 48 h. The plates were centrifuged again at 1600×g for 10 min, the medium culture was removed and 200 μl PBS and 50 μl of cold 80% TCA were added. The plates were incubated on ice for at least 1 h. TCA was removed, the plates were washed 3 times for immersion in distilled-water and dried before on paper, then in a thermostater at 40° C. Subsequently 200 μl of 0.4% sulphorodamine B in 1% acetic acid were added. The plates were incubated at room temperature for other 30 min. Sulphorodamine B was removed, the plates were washed for immersion in 1% acetic acid for 3 times, then they were washed and dried on paper. 200 μl Tris 10 mM were added, the plates were kept under stirring for 20 min. The survival cell was determined as optical density by a Multiskan spectrofluorimeter at 540 nm. For the tumor cells in adhesion (NCI-H460 and HCT-116), the procedure was as above mentioned, except that the at the end of the treatment, the plates were washed by remotion of the surnatant and addition of PBS 3 times and not by centrifugation. Also the last day of the assay, the surnatant was removed without centrifugation.
as §2

Where two headings read alike, the source gives them in different places.

Take `COC(=O)CCCCC[C@H]1C(=O)Nc2ccccc2OCCCC=CCN1C(=O)OC(C)(C)C`: the ring closure, yield of all isomers in series [1] (from C=CCCCOc1ccccc1NC(=O)[C@H](CCCCCC(=O)OC)N(CC=C)C(=O)OC(C)(C)C) came out at 84%.

Take `COC(=O)CCCCC[C@H]1C(=O)Nc2ccccc2OCCCCC=CCN1C(=O)OC(C)(C)C`: the ring closure, yield of all isomers in series [1] (from C=CCCCCOc1ccccc1NC(=O)[C@H](CCCCCC(=O)OC)N(CC=C)C(=O)OC(C)(C)C) was 82%.

The compound “7-(S)-Allyl-tert-butoxycarbonylamino)-7-(2-hex-5-enyloxyphenylcarbamoyl)heptanoic acid methyl ester” gave a ring closure, isolated yield in series [2] (the molecule shown is the open-chain precursor, 14-membered ring) of 82%.

In series [2] (the molecule shown is the open-chain precursor, 13-membered ring), “7-(S)-Allyl-tert-butoxycarbonylamino)-7-(2-pent-4-enyloxyphenylcarbamoyl)heptanoic acid methyl ester” registered a ring closure, isolated yield of 84%.

The compound `COC(=O)CCCCCC1OCC=CCC(c2ccc(OC)cc2)Oc2ccccc2NC1=O` (racemic) gave a ring closure, isolated yield in series [2] (from C=CCOC(CCCCCC(=O)OC)C(=O)Nc1ccccc1OC(CC=C)c1ccc(OC)cc1, 12-membered ring) of 45%.

Turning to `COC(=O)CCCCCC1OCC=CCCCOc2ccncc2NC1=O` (racemic), the ring closure, yield of all isomers in series [1] (from C=CCCCOc1ccncc1NC(=O)C(CCCCCC(=O)OC)OCC=C) came to 45%. The same compound displayed a ring closure, isolated yield in series [2] (from C=CCCCOc1ccncc1NC(=O)C(CCCCCC(=O)OC)OCC=C, 13-membered ring) of 45%.

Consider `COC(=O)CCCCCC1OCC=Cc2cc(cc(OC)c2)COc2ccccc2NC1=O` (racemic), for which the ring closure, isolated yield in series [2] (from C=CCOC(CCCCCC(=O)OC)C(=O)Nc1ccccc1OCc1cc(C=C)cc(OC)c1, 14-membered ring) is 52%.

One may read the IC50 as the midpoint of a concentration-inhibition curve. For the compound `O=C(CCCCCC(OCc1ccc(Br)cc1)C(=O)Nc1ccccc1)NO` (racemic) [Compound 9f, (±)-2-(4-Bromobenzyloxy)octanedioic acid 8-hydroxyamide 1-phenylamide], the IC50 in series [3] was 500 ± 40 nM; in series [4], less than 1000 nM; in series [5], 300 ± 50 nM; in series [6] it was 60 ± 4 nM.

For `Cc1ccc(COC(CCCCCC(=O)NO)C(=O)Nc2ccccc2)cc1` (racemic) [Compound 9g, (±)-2-(4-Methylbenzyloxy)octanedioic acid 8-hydroxyamide 1-phenylamide], the IC50 is 600 ± 10 nM in series [3], less than 1000 nM in series [4], 300 ± 9 nM in series [5] and 100 ± 10 nM in series [6].

Regarding `COc1cccc(COC(CCCCCC(=O)NO)C(=O)Nc2ccccc2)c1` (racemic) [Compound 9h, (±)-2-(3-Methoxybenzyloxy)octanedioic acid 8-hydroxyamide 1-phenylamide], the 50% inhibitory concentration (IC50) in series [3] was 600 ± 30 nM; in series [4], less than 1000 nM; in series [5], 600 ± 100 nM; in series [6] it was 200 ± 7 nM.

On to `COc1cc(COC(CCCCCC(=O)NO)C(=O)Nc2ccccc2)cc(OC)c1` (racemic) [Compound 9j, (±)-2-(3,5-Dimethoxybenzyloxy)octanedioic acid 8-hydroxyamide 1-phenylamide], for which the half-maximal inhibitory concentration (IC50) in series [3] was 400 ± 70 nM; in series [4], less than 1000 nM; in series [5] it was 300 ± 8 nM; in series [6], 50 ± 5 nM.

On to `O=C(CCCCCC(OCc1cccc(Oc2ccccc2)c1)C(=O)Nc1ccccc1)NO` (racemic) [Compound 9k, (±)-2-(3-Phenoxybenzyloxy)-octanedioic acid 8-hydroxyamide 1-phenylamide], for which the half-inhibitory concentration (IC50) in series [3] was 700 ± 40 nM; in series [4], less than 1000 nM; in series [5] it was 700 ± 80 nM; in series [6], 200 ± 9 nM.

Turning to `COc1ccc(NC(=O)C(CCCCCC(=O)NO)OCc2ccccc2)cc1` (racemic) [Compound 9l, (±)-2-Benzyloxyoctanedioic acid 8-hydroxyamide 1-[(4-methoxyphenyl)-amide]], the IC50 is 1000 ± 90 nM in series [3], less than 1000 nM in series [4], 500 ± 60 nM in series [5] and 200 ± 20 nM in series [6].

As to `COc1ccc(COC(CCCCCC(=O)NO)C(=O)Nc2ccc(OC)cc2)cc1` (racemic) [Compound 9m, (±)-2-(4-Methoxybenzyloxy)octanedioic acid 8-hydroxyamide 1-[(4-methoxyphenyl)amide]], the IC50 is 300 ± 40 nM in series [3], less than 1000 nM in series [4], 300 ± 10 nM in series [5] and 100 ± 40 nM in series [6].

For the compound `COc1ccc(COC(CCCCCCC(=O)NO)C(=O)Nc2ccccc2)cc1` (racemic) [Compound 13d, (±)-2-(4-Methoxybenzyloxy)nonanedioic acid 9-hydroxyamide 1-phenylamide], the concentration for half-maximal inhibition (IC50) is 700 ± 30 nM in series [3], less than 1000 nM in series [4], 500 ± 100 nM in series [5] and 300 ± 30 nM in series [6].

On to `COc1ccc(CO[C@H](CCCCCC(=O)NO)C(=O)Nc2ccccc2)cc1` [(R)-9d, 2-(R)-(4-Methoxybenzyloxy)octanedioic acid 8-hydroxyamide 1-phenylamide], for which the 50% inhibitory concentration (IC50) in series [3] was 500 ± 30 nM; in series [4] it was less than 1000 nM; in series [5] it was 400 ± 10 nM; in series [6], 70 ± 10 nM.
